“Also recorded” adds a separate entry of the source. Marks after values point to notes of the source that are not given here.
Columns and labels:
[1] = test system: tonic current in dentate gyms granule cells (DGGCs); experiment: Acute (allosteric) modulation of tonic current in DGGCs of hippocampal slices; type: cell-based, mice; conditions: 100 nM, 10 min acute exposure, then 100 μM picrotoxin; mean±SEM
Protocol: Brain slices were prepared from 3- to 5-week-old male C57 mice. Mice were anesthetized with isoflurane, decapitated, and brains were rapidly removed and submerged in ice-cold cutting solution containing (mM): 126 NaCl, 2.5 KCl, 0.5 CaCl2, 2 MgCl2, 26 NaHCO3, 1.25 NaH2PO4, 10 glucose, 1.5 sodium pyruvate, and 3 kynurenic acid. Coronal 310 μm thick slices were cut with the vibratome VT1000S (Leica Microsystems, St Louis, Mo., USA). The slices were then transferred into incubation chamber filled with prewarmed (31-32° C.) oxygenated artificial cerebro-spinal fluid (ACSF) of the following composition (in mM): 126 NaCl, 2.5 KCl, 2 CaCl2, 2 MgCl2, 26 NaHCO3, 1.25 NaH2PO4, 10 glucose, 1.5 sodium pyruvate, 1 glutamine, 3 kynurenic acid and 0.005 GABA bubbled with 95% O2-5% CO2. Slices were allowed to recover at 32° C. for at least 1 hr before recording. Exogenous GABA was added in an attempt to standardize ambient GABA in the slice and provide an agonist source for newly inserted extrasynaptic GABAARs. […]
Whole-cell currents were recorded from the dentate gyms granule cells (DGGCs) in 310-μm-thick coronal hippocampal slices. […] A 5 min period for stabilization after obtaining the whole-cell recording conformation (holding potential of −60 mV) was allowed before currents were recorded using an Axopatch 200B amplifier (Molecular Devices), low-pass filtered at 2 kHz, digitized at 20 kHz (Digidata 1440A; Molecular Devices), and stored for offline analysis.
For tonic current measurements, an all-points histogram was plotted for a 10 s period before and during 100 μM picrotoxin application, once the response reached a plateau level. […] Series resistance and whole-cell capacitance were continually monitored and compensated throughout the course of the experiment. […] Spontaneous inhibitory post-synaptic currents (sIPSCs) were analyzed using the mini-analysis software (version 5.6.4; Synaptosoft, Decatur, Ga.). […] Only recordings with a minimum of 200 events fitting these criteria were analyzed. sIPSCs amplitude, and frequency from each experimental condition was pooled and expressed as mean±SEM. […]

α1β2γ2 GABAA receptors = target: T1, α1β2γ2 GABAA receptors (Homo sapiens, UniProt P14867+P18507+P47870); experiment: Whole-cell patch clamp, potentiation of GABA EC20 currents at recombinant synaptic-type receptors (LTK cells); type: cell-based; conditions: n = 3; for EC50: α1β2γ2, GABA EC20 (2 μM)
T1 construct: expressed in transfected cells
Protocol: (§1) Cellular electrophysiology was used to measure the pharmacological properties of ALLO, ganaxolone and SGE-516 in heterologous cell systems. Compounds were tested for their ability to affect GABA mediated currents at a submaximal agonist dose (GABA EC20=2 μM).
(§2) LTK cells were stably transfected with the α1β2γ2 subunits of the GABA receptor and CHO cells are transiently transfected with the α4β3γ subunits via the Lipofecatamine method. Cells were passaged at a confluence of about 50-80% and then seeded onto 35 mm sterile culture dishes containing 2 ml culture complete medium without antibiotics or antimycotics. Cells were cultivated at a density that enabled the recording of single cells without visible connections to other cells.
(§3) Whole-cell currents were measured with HEKA EPC-10 amplifiers using PatchMaster software. Bath solution for all experiments contained (in mM): NaCl 137, KCl 4, CaCl2 1.8, MgCl2 1, HEPES 10, D-Glucose 10, pH 7.4 with NaOH. Intracellular (pipette) solution contained (in mM): KCl 130, MgCl2 1, Mg-ATP 5, HEPES 10, EGTA 5, pH 7.2 with KOH. During experiments, cells and solutions were maintained at room temperature (19° C.-30° C.). For manual patchclamp recordings, cell culture dishes were placed on the dish holder of the microscope and continuously perfused (1 ml/min) with bath solution. After formation of a Gigaohm seal between the patch electrode and the cell (pipette resistance range: 2.5 MΩ-6.0MΩ; seal resistance range: >1 GΩ) the cell membrane across the pipette tip was ruptured to assure electrical access to the cell interior (whole-cell patch configuration).
(§4) Cells were voltage-clamped at a holding potential of −80 mV. GABAA receptors were activated by 2 μM GABA and compounds were sequentially applied at increasing concentrations for 30 s prior to a 2 s application of GABA. GABA and compounds were applied to cells via the Dynaflow perfusion system (Cellectricon, Sweden). Test compounds were dissolved in DMSO to form 10 mM stock solution and serially diluted to 0.01, 0.1, 1, and 10 μM in bath solution. […] All concentrations of test compound were tested on each cell. The relative percentage potentiation was defined as the peak amplitude in response to GABA EC20 in the presence of test compound divided by the peak amplitude in response to GABA EC20 alone, multiplied by 100.
(§5) ALLO and ganaxolone are known PAMs of both synaptic and extrasynaptic GABAAR-mediated currents. […] The α1β2γ2 or α4β3δ subunit combinations were chosen as representatives of typical synaptic and extrasynaptic GABAA receptors respectively.

[2] = test system: tonic current in dentate gyms granule cells (DGGCs); experiment: Sustained (metabotropic) enhancement of tonic current in DGGCs after 15 min exposure and washout; type: cell-based, mice; conditions: 1 μM, 15 min incubation
Protocol: (§6) Brain slices were prepared from 3- to 5-week-old male C57 mice. Mice were anesthetized with isoflurane, decapitated, and brains were rapidly removed and submerged in ice-cold cutting solution containing (mM): 126 NaCl, 2.5 KCl, 0.5 CaCl2, 2 MgCl2, 26 NaHCO3, 1.25 NaH2PO4, 10 glucose, 1.5 sodium pyruvate, and 3 kynurenic acid. Coronal 310 μm thick slices were cut with the vibratome VT1000S (Leica Microsystems, St Louis, Mo., USA). The slices were then transferred into incubation chamber filled with prewarmed (31-32° C.) oxygenated artificial cerebro-spinal fluid (ACSF) of the following composition (in mM): 126 NaCl, 2.5 KCl, 2 CaCl2, 2 MgCl2, 26 NaHCO3, 1.25 NaH2PO4, 10 glucose, 1.5 sodium pyruvate, 1 glutamine, 3 kynurenic acid and 0.005 GABA bubbled with 95% O2-5% CO2. Slices were allowed to recover at 32° C. for at least 1 hr before recording. Exogenous GABA was added in an attempt to standardize ambient GABA in the slice and provide an agonist source for newly inserted extrasynaptic GABAARs.
(§7) After recovery, a single slice was transferred to a submerged, dual perfusion recording chamber (Warner Instruments, Hamden, Conn., USA) on the stage of an upright microscope (Nikon FN-1) with a 40× water immersion objective equipped with DIC/IR optics. Slices were maintained at 32° C. and gravity-superfused with ACSF solution throughout experimentation and perfused at rate of 2 ml/min with oxygenated (O2/CO2 95/5%) ACSF.
(§8) Whole-cell currents were recorded from the dentate gyms granule cells (DGGCs) in 310-μm-thick coronal hippocampal slices. Patch pipettes (5-7MΩ) were pulled from borosilicate glass (World Precision Instruments) and filled with intracellular solution of the composition (in mM) as follows: 140 CsCl, 1 MgCl2, 0.1 EGTA, 10 HEPES, 2 Mg-ATP, 4 NaCl and 0.3 Na-GTP (pH=7.2 with CsOH). A 5 min period for stabilization after obtaining the whole-cell recording conformation (holding potential of −60 mV) was allowed before currents were recorded using an Axopatch 200B amplifier (Molecular Devices), low-pass filtered at 2 kHz, digitized at 20 kHz (Digidata 1440A; Molecular Devices), and stored for offline analysis.
(§9) For tonic current measurements, an all-points histogram was plotted for a 10 s period before and during 100 μM picrotoxin application, once the response reached a plateau level. Recordings with unstable baselines were discarded. Fitting the histogram with a Gaussian distribution gave the mean baseline current amplitude and the difference between the amplitudes before and during picrotoxin was considered to be the tonic current. The negative section of the all-points histogram which corresponds to the inward IPSCs was not fitted with a Gaussian distribution (Kretschmannova et al., 2013; Nusser and Mody, 2002). Series resistance and whole-cell capacitance were continually monitored and compensated throughout the course of the experiment. Recordings were eliminated from data analysis if series resistance increased by >20%. Spontaneous inhibitory post-synaptic currents (sIPSCs) were analyzed using the mini-analysis software (version 5.6.4; Synaptosoft, Decatur, Ga.). Minimum threshold detection was set to 3 times the value of baseline noise signal. To assess sIPSC kinetics, the recording trace was visually inspected and only events with a stable baseline, sharp rising phase, and single peak were used to negate artifacts due to event summation. Only recordings with a minimum of 200 events fitting these criteria were analyzed. sIPSCs amplitude, and frequency from each experimental condition was pooled and expressed as mean±SEM. To measure sIPSC decay, 100 consecutive events were averaged and the decay was fitted to a double exponential and the weighted decay constant (tw) was determined. Statistical analysis was performed by using Student t-test (paired and unpaired where appropriate), where p<0.05 is considered significant.

[3] = test system: GABA receptor trafficking; experiment: GABA receptor trafficking measured by GABAergic current density (FIG. 14); type: cell-based; conditions: measured by the GABAergic current density
Text: As shown in above examples, not all neurosteroids can modulate GABA receptor trafficking.

α4β3δ GABAA receptors = target: T2, α4β3δ GABAA receptors (Homo sapiens, UniProt O14764+P28472+P48169); experiment: Whole-cell patch clamp, potentiation of GABA EC20 currents at recombinant extrasynaptic-type receptors (CHO cells); type: cell-based
T2 construct: expressed in transfected cells; host or cells: CHO cells (transient transfection, Lipofectamine)
Protocol: as §1, §2, §3, §4, §5

[4] = test system: sIPSCs in dentate gyms granule cells (DGGCs); experiment: Acute (allosteric) modulation of sIPSCs in DGGCs of hippocampal slices; type: cell-based, mice
Protocol: as §6, §7, §8, §9

[5] = 100 nM acute exposure, n = 5 to 7 neurons

T2 sequence (P48169 36-554): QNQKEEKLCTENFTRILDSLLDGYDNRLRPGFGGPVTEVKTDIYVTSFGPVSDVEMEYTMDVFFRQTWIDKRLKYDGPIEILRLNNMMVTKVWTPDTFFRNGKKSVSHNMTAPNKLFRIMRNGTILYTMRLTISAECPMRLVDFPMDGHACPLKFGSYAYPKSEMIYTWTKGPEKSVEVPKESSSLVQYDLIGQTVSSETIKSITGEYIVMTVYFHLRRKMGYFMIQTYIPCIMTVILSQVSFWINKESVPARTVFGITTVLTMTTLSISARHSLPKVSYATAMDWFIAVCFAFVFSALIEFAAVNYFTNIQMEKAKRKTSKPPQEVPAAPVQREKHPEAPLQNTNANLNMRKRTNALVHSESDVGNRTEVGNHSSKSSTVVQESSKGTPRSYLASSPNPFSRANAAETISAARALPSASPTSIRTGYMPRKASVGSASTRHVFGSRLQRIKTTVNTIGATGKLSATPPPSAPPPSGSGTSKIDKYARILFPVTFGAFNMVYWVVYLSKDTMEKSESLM
T2 sequence (P28472 26-473): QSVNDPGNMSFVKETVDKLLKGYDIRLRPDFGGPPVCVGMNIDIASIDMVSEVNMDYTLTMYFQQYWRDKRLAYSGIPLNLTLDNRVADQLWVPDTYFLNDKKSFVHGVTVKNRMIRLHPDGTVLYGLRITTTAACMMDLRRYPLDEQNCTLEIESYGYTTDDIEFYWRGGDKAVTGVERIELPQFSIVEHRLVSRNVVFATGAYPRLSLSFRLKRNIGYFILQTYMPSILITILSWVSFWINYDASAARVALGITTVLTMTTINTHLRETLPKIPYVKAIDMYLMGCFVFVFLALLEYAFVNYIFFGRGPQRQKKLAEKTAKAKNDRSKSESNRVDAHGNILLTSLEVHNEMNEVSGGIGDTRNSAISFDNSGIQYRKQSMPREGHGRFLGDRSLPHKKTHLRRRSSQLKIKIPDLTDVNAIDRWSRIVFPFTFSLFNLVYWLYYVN
T2 sequence (O14764 25-452): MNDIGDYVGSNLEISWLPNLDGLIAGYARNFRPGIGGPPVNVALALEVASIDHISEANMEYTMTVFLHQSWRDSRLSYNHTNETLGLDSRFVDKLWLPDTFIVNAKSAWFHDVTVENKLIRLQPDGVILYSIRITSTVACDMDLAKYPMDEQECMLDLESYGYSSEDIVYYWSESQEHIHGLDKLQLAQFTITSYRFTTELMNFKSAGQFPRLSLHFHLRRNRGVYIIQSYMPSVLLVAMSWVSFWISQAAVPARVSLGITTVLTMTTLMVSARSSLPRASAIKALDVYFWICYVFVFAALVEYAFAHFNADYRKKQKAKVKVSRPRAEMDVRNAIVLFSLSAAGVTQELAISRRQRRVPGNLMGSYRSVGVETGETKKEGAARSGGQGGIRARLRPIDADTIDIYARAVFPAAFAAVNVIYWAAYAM
T1 sequence (P14867 28-456): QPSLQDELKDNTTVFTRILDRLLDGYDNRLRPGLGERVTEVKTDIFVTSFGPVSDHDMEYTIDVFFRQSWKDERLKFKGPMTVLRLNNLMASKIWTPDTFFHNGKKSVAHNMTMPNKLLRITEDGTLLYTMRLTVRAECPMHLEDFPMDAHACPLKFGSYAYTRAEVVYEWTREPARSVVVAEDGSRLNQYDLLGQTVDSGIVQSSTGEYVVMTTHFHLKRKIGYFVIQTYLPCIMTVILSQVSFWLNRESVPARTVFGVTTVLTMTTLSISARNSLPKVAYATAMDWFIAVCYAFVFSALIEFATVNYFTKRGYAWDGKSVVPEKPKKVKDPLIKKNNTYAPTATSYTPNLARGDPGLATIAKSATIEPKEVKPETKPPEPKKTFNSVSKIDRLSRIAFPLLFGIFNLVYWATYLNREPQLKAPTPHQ
T1 sequence (P47870 25-512 limits assumed): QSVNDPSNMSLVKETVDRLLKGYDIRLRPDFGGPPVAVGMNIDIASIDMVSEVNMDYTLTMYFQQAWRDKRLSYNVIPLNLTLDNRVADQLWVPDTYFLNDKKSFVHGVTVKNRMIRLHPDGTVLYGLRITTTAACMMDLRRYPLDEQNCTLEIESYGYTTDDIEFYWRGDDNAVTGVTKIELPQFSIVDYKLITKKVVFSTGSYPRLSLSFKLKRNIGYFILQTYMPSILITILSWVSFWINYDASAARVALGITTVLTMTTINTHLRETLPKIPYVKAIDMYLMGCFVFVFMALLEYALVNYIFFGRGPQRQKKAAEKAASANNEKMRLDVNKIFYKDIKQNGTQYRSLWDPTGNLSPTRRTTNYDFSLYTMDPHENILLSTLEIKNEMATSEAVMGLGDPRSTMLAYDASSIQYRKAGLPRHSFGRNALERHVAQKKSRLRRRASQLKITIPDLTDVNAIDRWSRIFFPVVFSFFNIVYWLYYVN
T1 sequence (P18507 40-475): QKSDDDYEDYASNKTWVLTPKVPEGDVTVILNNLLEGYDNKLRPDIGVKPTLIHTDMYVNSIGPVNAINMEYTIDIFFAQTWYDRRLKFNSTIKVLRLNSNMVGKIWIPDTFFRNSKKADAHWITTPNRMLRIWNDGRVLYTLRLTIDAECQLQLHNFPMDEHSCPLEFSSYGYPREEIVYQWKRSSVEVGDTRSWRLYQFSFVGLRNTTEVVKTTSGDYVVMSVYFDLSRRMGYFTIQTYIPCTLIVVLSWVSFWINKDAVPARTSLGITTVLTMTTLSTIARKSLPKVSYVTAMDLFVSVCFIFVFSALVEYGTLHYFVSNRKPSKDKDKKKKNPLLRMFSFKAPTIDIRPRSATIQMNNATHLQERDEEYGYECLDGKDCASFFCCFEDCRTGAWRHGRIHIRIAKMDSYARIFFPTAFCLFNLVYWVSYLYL

Structure (SMILES): CC(=O)[C@H]1CC[C@H]2[C@@H]3CC[C@H]4C[C@](C)(O)CC[C@]4(C)[C@H]3CC[C@]12C [Ganaxolone]
- tonic current during acute exposure [1]: 78.8±23.2 pA
- EC50 (α1β2γ2 GABAA receptors; EC50, potentiation of GABA current): 256 nM
- EC50 (α1β2γ2 GABAA receptors; pEC50 ± S.E.M.): 158 nM
- Emax ± S.E.M., α1β2γ2 (α1β2γ2 GABAA receptors; relative percentage potentiation of GABA EC20 peak current): 400 ± 27%
- tonic current after exposure and washout ([2]; 30-60 min wash, vehicle 43.9±5.7 pA): 57.4±6.3 pA
- change of tonic current versus vehicle ([2]; wash): did not significantly alter; also recorded: No significant change
- modulation of GABA receptor trafficking [3]: did not modulate GABA receptor trafficking
- EC50 (α4β3δ GABAA receptors): 94 nM
- Emax (α4β3δ GABAA receptors; CHO, relative percentage potentiation of GABA EC20 peak current, n = 3, read-out: Emax ± S.E.M., α4β3δ): 225%
- Emax ± S.E.M., α4β3δ (α4β3δ GABAA receptors; relative percentage potentiation of GABA EC20 peak current, n = 3): 225 ± 8%
- mean sIPSC amplitude before versus during exposure ([4]; 100 nM): no significant difference
- mean sIPSC decay time in the presence of compound ([4]; 100 nM): significantly increased
- sIPSC Amplitude [4, 5]: 55.1 ± 0.7 pA
- sIPSC Decay [4, 5]: 23.6 ± 2.9^c ms
- sIPSC Frequency [4, 5]: 5.6 ± 1.7 Hz

From patent publication US20200341000A1, “METHOD OF SCREENING COMPOUNDS FOR TREATING CNS DISORDERS” (SAGE THERAPEUTICS, INC., priority 2017, published 2020)
